“And” between values parts separate entries of the source, which are not always exact repeats. Equal values may be shown once.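 Test compounds were applied to cells in 96-well plates for 48 hours at 5 doses. GI50 marks 50% less growth. TGI: total growth inhibition.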
Tests used:
Experiment in all cases: inhibition of tumour cell growth, NCI panel, 48 h
[1] = tested on: A498 renal
[2] = tested on: MOLT-4 leukemia
[3] = tested on: RPMI-8226 leukemia
[4] = tested on: RXF 393 renal
[5] = tested on: SK-MEL-2 melanoma
[6] = tested on: SNB-75 CNS
[7] = tested on: SW-620 colon
[8] = tested on: U251 CNS
[9] = tested on: UO-31 renal
[10] = tested on: MDA-MB-435

SMILES	TGI [1]	TGI [2]	TGI [3] [µM]	TGI [4]	TGI [5]	TGI [6] [µM]	TGI [7]	TGI [8]	TGI [9]	GI50 [1]	TGI [10]	GI50 [4]	GI50 [5]	GI50 [8]	GI50 [9]	GI50 [10] [µM]	GI50 [2] [µM]	GI50 [3] [µM]	GI50 [6] [µM]	GI50 [7] [µM]
CCNC(=O)O/N=C1\CCC2[C@@H]3CC=C4C[C@@H](OC(=O)NCC)CC[C@]4(C)C3CC[C@]12C (some centres not stated)	> 100 µM	3.2 µM	5.69	11.6 µM	9.87 µM	7.35	16.7 µM	9.6 µM	2.62 µM											
N#Cc1c(N)oc2cc3c(C#N)c(N)oc3cc12		> 100 µM	> 100	> 100 µM	> 100 µM	> 100	> 100 µM	> 100 µM	> 100 µM											
CC1(C)C2CC(=O)C1(C)C(OCc1ccccc1)C2Br (configuration not stated)	62.2 µM and > 100 µM	51.2 µM and 49.9 µM		46.8 µM and > 100 µM	25.8 µM and > 100 µM		47 µM and > 100 µM	44.6 µM and > 100 µM	75.1 µM and > 100 µM	24.8 µM and > 100 µM	> 100 µM and 84.7 µM	20.6 µM and 82.7 µM	13.1 µM and > 100 µM	22.4 µM and 51.7 µM	29.5 µM and 62 µM					
CCOC(=O)C(Oc1ccc(OC)c2c1C(=O)CCC2)c1ccccc1 (configuration not stated)	> 100 µM	> 100 µM	> 100		> 100 µM		> 100 µM	> 100 µM	> 100 µM											
CCn1c(=O)nc2n(-c3ccc(SC)cc3)c3ccccc3nc-2c1=O	> 100 µM	> 100 µM	> 100		> 100 µM	> 100	> 100 µM	> 100 µM	> 100 µM											
CCOC(=O)C1=C(C)N(NC(=O)Nc2ccccc2)C2(N)N(NC(=O)Nc3ccccc3)C(C)=C(C(=O)OCC)C12C#N (configuration not stated)	45 µM	56.8 µM	50.5	27.7 µM	30.2 µM	36.6	36.2 µM	32.3 µM	> 100 µM											
CCOC(=O)C(=O)CC(=O)C(Br)C(Br)c1ccc(Cl)cc1 (configuration not stated)		53 µM	51.8	62.6 µM	> 100 µM	> 100	> 100 µM		> 100 µM											
CC1=C(C(=S)Nc2ccc(Cl)c(C(=O)OC(C)C)c2)SCCO1	30.7 µM	46.6 µM	63.9		48.9 µM	43.7	44.7 µM	36.2 µM	32.8 µM		42.7 µM									
CN(C)NC(=O)NC12CC3CC(CC(C3)C1)C2	> 100 µM	> 100 µM	> 100	> 10 µM	> 100 µM	> 100	> 100 µM	> 100 µM	> 100 µM											
CCCCCCCCCC(=O)Oc1ccc(/C(=C(/C)c2ccccc2)c2ccc(OCCN3CCCC3)cc2)cc1		20.3 µM	21	14.1 µM	18.1 µM	13.5	15.6 µM	15.4 µM	14.2 µM		14.1 µM	6.95 µM	9.49 µM	8.01 µM	6.72 µM	7.47	8.61	9.13	6.56	8.57

Reference: PubChem BioAssay (NCI)
